In ChEMBL document CHEMBL6096659, “Towards the design of ligands of the internal pocket TEADs C-terminal domain” (Eur J Med Chem, 2025) one finds inhibition, Activity and IC50 data, which are given here for two compounds.

Molecules are shown by their SMILES. Activity calls are given as the source filed them. The rule behind the calls is not given here.

The subject of assay [1] is MDA-MB-231. Put plainly: Inhibition of YAP/TAZ-TEAD interaction in human MDA-MB-231 cells assessed as reduction in AXL expression at 100 nM measured after 48 hrs by Western blot analysis. In kind it is cell-based. Background: Immunoblotting shows a protein as a band on a membrane.
The test system of assay [2] is MDA-MB-231. The experiment in a line: Inhibition of YAP/TAZ-TEAD interaction in human MDA-MB-231 cells assessed as reduction in Cyr61 expression at 100 nM measured after 48 hrs by Western blot analysis. In kind it is cell-based.
Assay [3] concerns MDA-MB-231. Put plainly: Inhibition of YAP/TAZ-TEAD interaction in human MDA-MB-231 cells assessed as reduction in BIRC5 expression at 100 nM measured after 48 hrs by Western blot analysis. The assay is classed as cell-based.
Assay [4] relates to MDA-MB-231. The experiment in a line: Inhibition of YAP/TAZ-TEAD interaction in human MDA-MB-231 cells assessed as reduction in CTGF expression at 100 nM measured after 48 hrs by Western blot analysis. The assay is classed as cell-based.
In the next assay the test system is HEK293T. Put plainly: Inhibition of TEAD transcriptional activity in HEK293T cells transfected with 8xGTIIC-luciferase assessed as residual activity at 10 uM incubated for 24 hrs by luciferase reporter assay relative to control. In kind it is cell-based. To be noted: Homo sapiens. A general note: Reporter assays use an easily measured gene product as a stand-in for the process of interest.

The nature of assay [5]: Inhibition of TEAD transcriptional activity in HEK293T cells transfected with 8xGTIIC-luciferase incubated for 24 hrs by luciferase reporter assay. The assay is classed as cell-based. Particulars: Homo sapiens, HEK-293T.
In assay [6] the target is Transcriptional enhancer factor TEF-4 (Homo sapiens) (UniProt Q15562). The experiment in a line: Binding affinity to human TEAD2 (247 to 447 residues) assessed as adduct formation at 400 to 800 uM incubated for 24 hrs by MALDI-TOF mass spectrometric analysis. Particulars: dose 400-800 µM.
Chain of Transcriptional enhancer factor TEF-4 (Homo sapiens) (Q15562 whole entry, the tested form may be a part): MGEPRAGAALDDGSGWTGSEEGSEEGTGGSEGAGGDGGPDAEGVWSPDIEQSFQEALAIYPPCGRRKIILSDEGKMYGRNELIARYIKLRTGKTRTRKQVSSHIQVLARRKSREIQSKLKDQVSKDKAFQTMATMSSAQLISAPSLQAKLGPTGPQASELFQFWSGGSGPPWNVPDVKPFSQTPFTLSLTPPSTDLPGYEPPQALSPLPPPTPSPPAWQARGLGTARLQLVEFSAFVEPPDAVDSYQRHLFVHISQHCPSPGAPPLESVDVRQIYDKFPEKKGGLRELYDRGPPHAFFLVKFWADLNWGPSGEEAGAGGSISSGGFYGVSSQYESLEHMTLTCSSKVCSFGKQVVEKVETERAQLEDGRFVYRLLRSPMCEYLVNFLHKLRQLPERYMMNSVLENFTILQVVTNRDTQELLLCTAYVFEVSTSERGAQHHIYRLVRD
For assay [7] the target is unchanged. The experiment in a line: Binding affinity to human TEAD2 (247 to 447 residues) cysteine residue assessed as adduct formation at 800 uM incubated for 24 hrs by MALDI-TOF mass spectrometric analysis.

As to `Cc1nc(Nc2ncc(C(=O)Nc3c(C)cccc3Cl)s2)cc(N2CCN(CCO)CC2)n1`, the inhibition result with MDA-MB-231 [1], with MDA-MB-231 [2] and with MDA-MB-231 [3] was “Active” in each case. Further, the inhibition entry in the assay with MDA-MB-231 [4] is on record as “Active; Compound Showed Moderate Effect”.
For orientation: IC50 means the concentration that inhibits the measured activity by half. Read a low IC50 as greater potency. Take `O=C(CCl)NCCCn1ccc2cc(OCc3ccccc3)ccc21`: the values for the Activity (with HEK293T; in assay [6]; in assay [7]) were 16%, “Active; New Peak Appeared At Higher M/Z Values And Peak For Unmodified Human Tead2 At 26687 M/Z Disappeared” and “Active; Double Adduct Formation Observed Indicating Selective Reaction With Single Cysteine Residue”, respectively. The compound further had a 50% inhibitory concentration (IC50) in assay [5] of 3.6 µM.
